Data reported in patent US20080009418A1, “Selective Inhibitors” (Alchemia LTD., priority 2004, published 2008).

Assays:
[1] = biological target: T1, Human melanin-concentrating hormone (MCH1) (Homo sapiens, UniProt Q99705); assay: Radioligand binding, human melanin-concentrating hormone MCH1 membranes, FlashPlate, [125I]-S36057; conditions: compound at 10 μM; for A6 radioligand binding inhibition: human MCH1 membranes
T1 construct: purchased Perkin Elmer Biosignal
Summary of the method: (§1)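 Cloned human receptor membranes were coated onto FlashPlate wells and incubated with radioligand and compound (added from a 0.5 mM DMSO daughter plate) for 1 hour at room temperature in the dark. Scintillation counting gave percent inhibition, with DMSO defining total and reference ligand defining non-specific binding.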

[2] = biological target: T2, Human neurokinin (NK1) (Homo sapiens, UniProt P25103); assay: Radioligand binding, human neurokinin NK1 membranes, filtration, [125I]-Substance P; conditions: compound at 10 μM; for A8 radioligand binding inhibition: human neurokinin NK1 membranes
T2 construct: purchased Perkin Elmer Biosignal
Summary of the method: (§2)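 Membranes from cloned human receptors were incubated with compound and radioligand for 1 hour at room temperature. Bound ligand was collected on 0.3% PEI-soaked filters, washed with cold 50 mM Tris-HCl pH 7.4, and counted by scintillation. Percent inhibition was computed against DMSO totals and reference-ligand nonspecific wells.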

[3] = biological target: T3, Human μ-opioid (MOP) (Homo sapiens, UniProt P35372); assay: Radioligand binding, human μ-opioid (MOP) membranes, FlashPlate, [3H]-Naloxone; conditions: compound at 10 μM; for A7 radioligand binding inhibition: human μ-opioid (MOP) membranes
T3 construct: purchased Perkin Elmer Biosignal
Summary of the method: as §1

[4] = biological target: T4, Mouse urotensin (mUR2) (Mus musculus, UniProt Q8VIH9); assay: Radioligand binding, mouse urotensin mUR2 membranes, FlashPlate, [125I]-Urotensin II; conditions: compound at 10 μM; for A11 radioligand binding inhibition: mouse urotensin mUR2 membranes
T4 construct: purchased Perkin Elmer Biosignal
T4 sequence (Q8VIH9 1-385): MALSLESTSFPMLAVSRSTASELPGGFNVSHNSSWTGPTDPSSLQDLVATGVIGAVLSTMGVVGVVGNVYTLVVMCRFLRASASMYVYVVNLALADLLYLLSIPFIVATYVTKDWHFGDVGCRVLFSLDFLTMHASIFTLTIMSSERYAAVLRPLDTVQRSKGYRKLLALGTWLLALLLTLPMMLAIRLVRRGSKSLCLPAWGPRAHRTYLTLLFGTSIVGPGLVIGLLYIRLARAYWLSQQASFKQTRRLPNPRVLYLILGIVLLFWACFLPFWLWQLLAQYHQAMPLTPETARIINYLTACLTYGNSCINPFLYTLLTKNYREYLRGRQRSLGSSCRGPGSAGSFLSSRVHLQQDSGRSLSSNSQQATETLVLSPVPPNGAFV
Summary of the method: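 Cloned mouse urotensin (mUR2) receptor membranes from Perkin Elmer Biosignal were immobilized in FlashPlate microplates using a proprietary coating. Each well got 19.5 μl buffer, then 0.5 μl of DMSO, reference ligand, or compound. Adding 5 μl of [125I]-Urotensin II, diluted to 5× final concentration in binding buffer, started binding. Plates were sealed with TopSeal-A and incubated 1 hour at room temperature in the dark. Wells were counted for 30 seconds each on a TopCount after a 60-second delay, and percentage inhibition was calculated.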

[5] = biological target: T5, Human κ-Opioid (KOP) (Homo sapiens, UniProt P41145); assay: Radioligand binding, human κ-opioid (KOP) membranes, filtration, [3H]-Diprenorphine; conditions: compound at 10 μM; for A2 radioligand binding inhibition: human κ-opioid (KOP) membranes
T5 construct: purchased Perkin Elmer Biosignal
Summary of the method: as §2

[6] = biological target: T6, Human neuropeptide Y (NPY-Y1) (Homo sapiens, UniProt P25929); assay: Radioligand binding, human neuropeptide Y NPY-Y1 membranes, FlashPlate, [125I]-PYY; conditions: compound at 10 μM; for A9 radioligand binding inhibition: human NPY-Y1 membranes
T6 construct: purchased Perkin Elmer Biosignal
T6 sequence (P25929 1-384): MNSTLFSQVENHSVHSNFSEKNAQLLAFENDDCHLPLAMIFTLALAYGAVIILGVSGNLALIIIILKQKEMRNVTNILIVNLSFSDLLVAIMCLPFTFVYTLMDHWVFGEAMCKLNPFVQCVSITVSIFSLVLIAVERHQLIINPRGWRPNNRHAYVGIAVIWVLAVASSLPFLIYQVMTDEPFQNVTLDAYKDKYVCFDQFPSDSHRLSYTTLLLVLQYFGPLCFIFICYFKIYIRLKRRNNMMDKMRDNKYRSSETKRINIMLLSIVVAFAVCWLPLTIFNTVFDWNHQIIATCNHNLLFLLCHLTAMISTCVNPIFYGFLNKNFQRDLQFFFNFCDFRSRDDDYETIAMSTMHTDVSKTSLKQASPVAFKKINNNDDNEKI
Summary of the method: as §1

[7] = biological target: T7, Human melanocortin (MC5) (Homo sapiens, UniProt P33032); assay: Radioligand binding, human melanocortin MC5 membranes, FlashPlate, [125I]-NDP-αMSH; conditions: compound at 10 μM; for A5 radioligand binding inhibition: human melanocortin MC5 membranes
T7 construct: purchased Perkin Elmer Biosignal
Summary of the method: as §1

[8] = biological target: T8, Human Melanocortin (MC4) (Homo sapiens, UniProt P32245); assay: Radioligand binding, human melanocortin MC4 membranes, FlashPlate, [125I]-NDP-αMSH; conditions: compound at 10 μM; for A4 radioligand binding inhibition: human melanocortin MC4 membranes
T8 construct: purchased Perkin Elmer Biosignal
Summary of the method: as §1

[9] = biological target: T9, Human δ-opioid (DOP) (Homo sapiens, UniProt P41143); assay: Radioligand binding, human δ-opioid (DOP) membranes, FlashPlate, [3H]-Bremazocine; conditions: compound at 10 μM; for A1 radioligand binding inhibition: human δ-opioid (DOP) membranes
T9 construct: purchased Perkin Elmer Biosignal
Summary of the method: as §1

[10] = biological target: T10, Human opioid (ORL1) (Homo sapiens, UniProt P41146); assay: Radioligand binding, human opioid ORL1 membranes, FlashPlate, [125I]-Nociceptin; conditions: compound at 10 μM; for A10 radioligand binding inhibition: human ORL1 membranes
T10 construct: purchased Perkin Elmer Biosignal
Summary of the method: as §1

[11] = biological target: T11, Human Melanocortin (MC3) (Homo sapiens, UniProt P41968); assay: Radioligand binding, human melanocortin MC3 membranes, FlashPlate, [125I]-NDP-αMSH; conditions: compound at 10 μM; for A3 radioligand binding inhibition: human melanocortin MC3 membranes
T11 construct: purchased Perkin Elmer Biosignal
Summary of the method: as §1

T8 sequence (P32245 whole entry): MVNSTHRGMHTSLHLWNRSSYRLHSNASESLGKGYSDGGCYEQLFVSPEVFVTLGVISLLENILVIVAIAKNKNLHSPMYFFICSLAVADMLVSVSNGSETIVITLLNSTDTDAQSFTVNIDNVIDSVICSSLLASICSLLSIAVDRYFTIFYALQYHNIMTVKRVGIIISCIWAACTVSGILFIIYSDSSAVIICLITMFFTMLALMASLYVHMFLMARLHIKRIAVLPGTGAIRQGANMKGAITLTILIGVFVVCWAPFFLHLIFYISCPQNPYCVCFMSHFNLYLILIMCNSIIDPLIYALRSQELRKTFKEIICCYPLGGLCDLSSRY
T1 sequence (Q99705 whole entry): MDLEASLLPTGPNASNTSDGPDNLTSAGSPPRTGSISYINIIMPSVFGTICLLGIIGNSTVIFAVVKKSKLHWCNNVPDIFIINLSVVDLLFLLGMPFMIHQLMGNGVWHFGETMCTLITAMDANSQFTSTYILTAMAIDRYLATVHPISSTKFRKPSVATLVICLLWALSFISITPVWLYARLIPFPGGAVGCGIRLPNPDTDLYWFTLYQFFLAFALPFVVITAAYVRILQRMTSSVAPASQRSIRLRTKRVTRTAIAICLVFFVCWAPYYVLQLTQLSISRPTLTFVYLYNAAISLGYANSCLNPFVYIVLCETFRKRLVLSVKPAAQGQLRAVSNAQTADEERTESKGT
T10 sequence (P41146 whole entry): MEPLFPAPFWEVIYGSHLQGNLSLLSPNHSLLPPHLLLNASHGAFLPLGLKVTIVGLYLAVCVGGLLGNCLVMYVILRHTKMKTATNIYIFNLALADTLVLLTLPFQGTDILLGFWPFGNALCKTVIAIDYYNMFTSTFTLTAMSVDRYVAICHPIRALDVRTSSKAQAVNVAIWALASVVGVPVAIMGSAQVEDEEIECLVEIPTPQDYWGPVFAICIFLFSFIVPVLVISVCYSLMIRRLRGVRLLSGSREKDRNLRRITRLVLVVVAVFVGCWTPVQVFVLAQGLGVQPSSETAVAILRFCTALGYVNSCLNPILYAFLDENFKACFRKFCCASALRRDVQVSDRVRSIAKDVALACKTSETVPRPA
T9 sequence (P41143 whole entry): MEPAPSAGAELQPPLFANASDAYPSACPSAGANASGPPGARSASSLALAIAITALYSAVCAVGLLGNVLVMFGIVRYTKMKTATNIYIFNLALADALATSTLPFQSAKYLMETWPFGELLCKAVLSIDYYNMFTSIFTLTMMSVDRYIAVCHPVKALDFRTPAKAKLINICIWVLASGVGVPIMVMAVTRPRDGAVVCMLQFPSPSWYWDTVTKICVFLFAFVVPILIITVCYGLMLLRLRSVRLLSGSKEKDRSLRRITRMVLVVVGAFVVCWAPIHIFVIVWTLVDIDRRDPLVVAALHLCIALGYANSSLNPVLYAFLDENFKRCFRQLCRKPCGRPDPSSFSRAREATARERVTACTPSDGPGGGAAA
T7 sequence (P33032 whole entry): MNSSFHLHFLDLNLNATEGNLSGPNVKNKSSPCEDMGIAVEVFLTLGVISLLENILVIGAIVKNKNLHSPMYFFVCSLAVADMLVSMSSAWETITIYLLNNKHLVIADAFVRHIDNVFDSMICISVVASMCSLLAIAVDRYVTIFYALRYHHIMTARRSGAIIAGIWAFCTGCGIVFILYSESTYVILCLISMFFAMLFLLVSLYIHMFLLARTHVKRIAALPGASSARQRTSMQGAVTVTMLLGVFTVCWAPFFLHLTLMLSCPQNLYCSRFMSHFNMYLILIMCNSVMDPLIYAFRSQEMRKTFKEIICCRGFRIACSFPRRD
T11 sequence (P41968 whole entry): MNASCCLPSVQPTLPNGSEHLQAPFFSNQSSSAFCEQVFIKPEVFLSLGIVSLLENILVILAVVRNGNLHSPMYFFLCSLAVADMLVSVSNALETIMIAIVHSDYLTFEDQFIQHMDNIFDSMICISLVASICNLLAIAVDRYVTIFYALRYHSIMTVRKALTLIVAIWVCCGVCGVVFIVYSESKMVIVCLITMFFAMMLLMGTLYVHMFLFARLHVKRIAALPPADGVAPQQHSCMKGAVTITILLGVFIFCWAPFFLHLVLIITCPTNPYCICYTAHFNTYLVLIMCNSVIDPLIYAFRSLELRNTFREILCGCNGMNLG
T2 sequence (P25103 whole entry): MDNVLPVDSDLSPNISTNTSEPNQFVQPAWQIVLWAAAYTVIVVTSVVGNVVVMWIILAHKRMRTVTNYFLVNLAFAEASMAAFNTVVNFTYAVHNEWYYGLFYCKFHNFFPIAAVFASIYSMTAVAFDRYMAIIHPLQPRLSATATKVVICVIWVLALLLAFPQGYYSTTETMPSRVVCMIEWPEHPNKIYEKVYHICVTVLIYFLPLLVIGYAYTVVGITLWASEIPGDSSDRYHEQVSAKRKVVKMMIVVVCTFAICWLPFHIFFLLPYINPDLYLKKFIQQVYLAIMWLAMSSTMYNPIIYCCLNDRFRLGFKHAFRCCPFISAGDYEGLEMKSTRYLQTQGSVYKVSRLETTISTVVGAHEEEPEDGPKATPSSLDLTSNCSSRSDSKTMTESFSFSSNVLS
T3 sequence (P35372 whole entry): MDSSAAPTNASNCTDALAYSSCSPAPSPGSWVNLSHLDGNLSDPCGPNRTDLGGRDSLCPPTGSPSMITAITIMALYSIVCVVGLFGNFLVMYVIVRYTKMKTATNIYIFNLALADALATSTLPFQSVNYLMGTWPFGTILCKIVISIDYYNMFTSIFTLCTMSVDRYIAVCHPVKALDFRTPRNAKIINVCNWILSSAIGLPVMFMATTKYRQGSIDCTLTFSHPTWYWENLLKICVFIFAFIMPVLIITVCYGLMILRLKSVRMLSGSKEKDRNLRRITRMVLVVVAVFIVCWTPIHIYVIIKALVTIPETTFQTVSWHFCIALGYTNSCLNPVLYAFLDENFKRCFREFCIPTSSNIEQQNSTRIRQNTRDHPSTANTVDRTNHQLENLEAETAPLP
T5 sequence (P41145 whole entry): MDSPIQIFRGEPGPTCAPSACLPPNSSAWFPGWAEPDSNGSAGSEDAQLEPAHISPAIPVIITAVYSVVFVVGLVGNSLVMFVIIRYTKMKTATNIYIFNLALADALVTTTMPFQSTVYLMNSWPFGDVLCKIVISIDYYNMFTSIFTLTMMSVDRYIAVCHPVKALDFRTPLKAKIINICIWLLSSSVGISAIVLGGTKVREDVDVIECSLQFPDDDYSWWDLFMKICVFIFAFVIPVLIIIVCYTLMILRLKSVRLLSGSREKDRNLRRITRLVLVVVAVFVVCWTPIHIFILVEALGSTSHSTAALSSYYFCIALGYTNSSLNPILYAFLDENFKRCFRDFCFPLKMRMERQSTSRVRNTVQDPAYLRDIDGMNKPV

Structure (SMILES)	A6 radioligand binding, percentage inhibition ([1]; [125I]-S36057)	A8 radioligand binding, percentage inhibition ([2]; [125I]-Substance P)	A7 radioligand binding, percentage inhibition ([3]; [3H]-Naloxone)	A11 radioligand binding, percentage inhibition ([4]; [125I]-Urotensin II)	A2 radioligand binding, percentage inhibition ([5]; [3H]-Diprenorphine)	A9 radioligand binding, percentage inhibition ([6]; [125I]-PYY)	A5 radioligand binding, percentage inhibition ([7]; [125I]-NDP-αMSH)	A4 radioligand binding, percentage inhibition ([8]; [125I]-NDP-αMSH)	A1 radioligand binding, percentage inhibition ([9]; [3H]-Bremazocine)	A10 radioligand binding, percentage inhibition ([10]; [125I]-Nociceptin)	A3 radioligand binding, percentage inhibition ([11]; [125I]-NDP-αMSH)	A6 radioligand binding inhibition [1]	A8 radioligand binding inhibition [2]	A7 radioligand binding inhibition [3]	A11 radioligand binding inhibition [4]	A2 radioligand binding inhibition [5]	A9 radioligand binding inhibition [6]	A5 radioligand binding inhibition [7]	A4 radioligand binding inhibition [8]	A1 radioligand binding inhibition [9]	further results
COCC1OC(OCCc2ccccc2)C(NC(=O)CCCNC(=N)N)C(OCc2ccccc2)C1O (stereo not drawn) [compound 218]																					A6: inhibition of radioligand binding ([1]; [125I]-S36057, FlashPlate): − (“−” indicates less than 50% inhibition at 10 μM); A8: inhibition of radioligand binding ([2]; [125I]-Substance P, filtration): + (“+” indicates greater than 50% inhibition at 10 μM); A7: inhibition of radioligand binding ([3]; [3H]-Naloxone, FlashPlate): − (“−” indicates less than 50% inhibition at 10 μM); A11: inhibition of radioligand binding ([4]; [125I]-Urotensin II, FlashPlate): − (“−” indicates less than 50% inhibition at 10 μM); A2: inhibition of radioligand binding ([5]; [3H]-Diprenorphine, filtration): − (“−” indicates less than 50% inhibition at 10 μM); A9: inhibition of radioligand binding ([6]; [125I]-PYY, FlashPlate): − (“−” indicates less than 50% inhibition at 10 μM); A5: inhibition of radioligand binding ([7]; [125I]-NDP-αMSH, FlashPlate): − (“−” indicates less than 50% inhibition at 10 μM); A4: inhibition of radioligand binding ([8]; [125I]-NDP-αMSH, FlashPlate): − (“−” indicates less than 50% inhibition at 10 μM); A1: inhibition of radioligand binding ([9]; [3H]-Bremazocine, FlashPlate): − (“−” indicates less than 50% inhibition at 10 μM); A10: inhibition of radioligand binding ([10]; [125I]-Nociceptin, FlashPlate): − (“−” indicates less than 50% inhibition at 10 μM); A3: inhibition of radioligand binding ([11]; [125I]-NDP-αMSH, FlashPlate): − (“−” indicates less than 50% inhibition at 10 μM)
COCC1OC(OCc2ccccc2)C(NC(=O)CCNC(=N)N)C(OCc2ccc(Cl)cc2)C1O (stereo not drawn) [compound 179]	+ (“+” indicates greater than 50% inhibition at 10 μM)	+ (“+” indicates greater than 50% inhibition at 10 μM)	− (“−” indicates less than 50% inhibition at 10 μM)	− (“−” indicates less than 50% inhibition at 10 μM)	− (“−” indicates less than 50% inhibition at 10 μM)	− (“−” indicates less than 50% inhibition at 10 μM)	+ (“+” indicates greater than 50% inhibition at 10 μM)	+ (“+” indicates greater than 50% inhibition at 10 μM)	+ (“+” indicates greater than 50% inhibition at 10 μM)	− (“−” indicates less than 50% inhibition at 10 μM)	+ (“+” indicates greater than 50% inhibition at 10 μM)										
COC[C@H]1OC(OCc2ccc(-c3ccccc3)cc2)[C@H](NC(=O)CNC(=N)N)[C@@H](OCc2ccc(-c3ccccc3)cc2)[C@@H]1O (stereo partly drawn) [compound 1]												+ (“+” indicates greater than 50% inhibition at 10 μM)	+ (“+” indicates greater than 50% inhibition at 10 μM)	− (“−” indicates less than 50% inhibition at 10 μM)	− (“−” indicates less than 50% inhibition at 10 μM)	− (“−” indicates less than 50% inhibition at 10 μM)	− (“−” indicates less than 50% inhibition at 10 μM)	+ (“+” indicates greater than 50% inhibition at 10 μM)	+ (“+” indicates greater than 50% inhibition at 10 μM)	− (“−” indicates less than 50% inhibition at 10 μM)	A10 radioligand binding inhibition [10]: − (“−” indicates less than 50% inhibition at 10 μM); A3 radioligand binding inhibition [11]: + (“+” indicates greater than 50% inhibition at 10 μM)
CO[C@H]1[C@H](O)[C@@H](COCc2ccc3ccccc3c2)OC(OCc2ccc(Cl)cc2)[C@@H]1NC(=O)CCCN (stereo partly drawn) [compound 99]	− (“−” indicates less than 50% inhibition at 10 μM)	+ (“+” indicates greater than 50% inhibition at 10 μM)	− (“−” indicates less than 50% inhibition at 10 μM)	− (“−” indicates less than 50% inhibition at 10 μM)	− (“−” indicates less than 50% inhibition at 10 μM)	− (“−” indicates less than 50% inhibition at 10 μM)	+ (“+” indicates greater than 50% inhibition at 10 μM)	+ (“+” indicates greater than 50% inhibition at 10 μM)	− (“−” indicates less than 50% inhibition at 10 μM)	− (“−” indicates less than 50% inhibition at 10 μM)	− (“−” indicates less than 50% inhibition at 10 μM)										
COC[C@H]1OC(OCc2ccc(Cl)cc2)[C@H](NC(=O)CCCN)[C@@H](OCc2ccc(-c3ccccc3)cc2)[C@@H]1O (stereo partly drawn) [compound 342]																					A6: inhibition of radioligand binding, human melanin-concentrating hormone (MCH1) ([1]; [125I]-S36057): − (“−” indicates less than 50% inhibition at 10 μM); A8: inhibition of radioligand binding, human neurokinin (NK1) ([2]; [125I]-Substance P): + (“+” indicates greater than 50% inhibition at 10 μM); A7: inhibition of radioligand binding, human μ-opioid (MOP) ([3]; [3H]-Naloxone): + (“+” indicates greater than 50% inhibition at 10 μM); A11: inhibition of radioligand binding, mouse urotensin (mUR2) ([4]; [125I]-Urotensin II): − (“−” indicates less than 50% inhibition at 10 μM); A2: inhibition of radioligand binding, human κ-opioid (KOP) ([5]; [3H]-Diprenorphine): − (“−” indicates less than 50% inhibition at 10 μM); A9: inhibition of radioligand binding, human neuropeptide Y (NPY-Y1) ([6]; [125I]-PYY): − (“−” indicates less than 50% inhibition at 10 μM); A5: inhibition of radioligand binding, human melanocortin (MC5) ([7]; [125I]-NDP-αMSH): − (“−” indicates less than 50% inhibition at 10 μM); A4: inhibition of radioligand binding, human melanocortin (MC4) ([8]; [125I]-NDP-αMSH): + (“+” indicates greater than 50% inhibition at 10 μM); A1: inhibition of radioligand binding, human δ-opioid (DOP) ([9]; [3H]-Bremazocine): − (“−” indicates less than 50% inhibition at 10 μM); A10: inhibition of radioligand binding, human opioid (ORL1) ([10]; [125I]-Nociceptin): − (“−” indicates less than 50% inhibition at 10 μM); A3: inhibition of radioligand binding, human melanocortin (MC3) ([11]; [125I]-NDP-αMSH): − (“−” indicates less than 50% inhibition at 10 μM)
COC[C@H]1OC(OCc2ccc(Cl)cc2)[C@H](NC(=O)CNC(=N)N)[C@@H](OCc2ccc(-c3ccccc3)cc2)[C@@H]1O (stereo partly drawn) [compound 28]												+ (“+” indicates greater than 50% inhibition at 10 μM)	+ (“+” indicates greater than 50% inhibition at 10 μM)	− (“−” indicates less than 50% inhibition at 10 μM)	− (“−” indicates less than 50% inhibition at 10 μM)	− (“−” indicates less than 50% inhibition at 10 μM)	− (“−” indicates less than 50% inhibition at 10 μM)	+ (“+” indicates greater than 50% inhibition at 10 μM)	+ (“+” indicates greater than 50% inhibition at 10 μM)	− (“−” indicates less than 50% inhibition at 10 μM)	A10 radioligand binding inhibition [10]: − (“−” indicates less than 50% inhibition at 10 μM); A3 radioligand binding inhibition [11]: − (“−” indicates less than 50% inhibition at 10 μM)
